# Experimental data reported in patent publication US20260158002A1, “APPLICATION OF COMPOSITION CONTAINING EDARAVONE AND DEXBORNEOL IN IMPROVING OR TREATING COGNITIVE IMPAIRMENT” (NEURODAWN PHARMACEUTICAL CO., LTD., priority 2021, published 2026).
# Tests used:
# [1] = tested on: primary cortical neurons; test: Aβ1-42-induced primary cortical neuronal injury test (Luminescent Cell Viability Assay); type: cell-based, rat; settings: single agent, pre-incubation 30 min before oligomerized Aβ1-42 50 μM, 24 h; edaravone 3.7 to 100 μM, dexborneol 1.2 to 100 μM; vs DMSO group
# Method: A SD pregnant rat at 18 days of pregnancy was sacrificed by cervical dislocation, the uteruses of the rat were dissected, the brain of E18 fetal rat was taken out, the cerebral cortical tissue of the fetal rat was isolated into an ice-cold DMEM, the meninge and blood vessels were removed from the cortical tissue under a dissecting microscope, the cortical tissue was transferred to an ice-cold DMEM and minced (about 1 mm^3), and digested with trypsin at 37° C. for 10 min, the digestion was terminated with FBS, a Pasteur pipette was used to perform gentle pipetting and dispersing, and screening was then performed using a 200-mesh sieve. […] The cells were counted by a hemocytometer, diluted to 5×10^5 cells/ml with a complete medium, and seeded in a 96-well plate coated with PDL (100 μL/well) for culture. […]
# The medium of the in vitro matured primary neurons was replaced with a complete medium containing different concentrations (1.2, 3.7, 11.1, 33.3, 100.0 μM) of edaravone (E), dexborneol (B) or an edaravone and dexborneol composition (EB), after incubation at 37° C. for 30 min, oligomerized Aβ1-42 (final concentration of 50 μM) was added, the culture was continued for 24 h, and the neuronal viability was tested. […] LUMbackground is the background reading of the cell-free medium well into which Luminescent Cell Viability Assay kit is added. […]
# [2] = tested on: pro-inflammatory factors (TNF-α, IL-1β, etc.) and inflammatory proteins (iNOS and COX-2); settings: cited from earlier work
# [3] = tested on: GABAAR receptors; settings: cited from earlier work
smiles,measurement,setting,value
"CC1(C)[C@@H]2CC[C@@]1(C)[C@@H](O)C2 [dexborneol, (+)-borneol]","inhibiting Aβ-induced neurotoxicity, increasing the cell viability",[1],capable of inhibiting Aβ-induced neurotoxicity in a concentration-dependent manner
same,pro-inflammatory factors and inflammatory proteins within the brain,[2],"reduce multiple pro-inflammatory factors (TNF-α, IL-1β, etc.) and inflammatory proteins (iNOS and COX-2) within the brain"
same,agonism of inhibitory GABAAR receptors,[3],can agonize inhibitory GABAAR receptors
